The values below come from patent US7968556B2, “Heteroaryl compounds, compositions thereof, and methods of treatment therewith” (Signal Pharmaceuticals, LLC, priority 2006, dated 2011).

Usually melting point stands for the temperature, or range, at which the solid turns liquid. As usually defined, the IC50 is the midpoint of a concentration-inhibition curve.

In one data set the target is mTOR (Homo sapiens, UniProt P42345). The data set is described as follows: mTOR HTR-FRET Assay. It is filed as biochemical. Here is the method:
The following is an example of an assay that can be used to determine the mTOR inhibitory activity of a test compound. Reagents are prepared as follows:
“Simple TOR buffer” (used to dilute high glycerol TOR fraction): 10 mM Tris pH 7.4, 10 mM NaCl, 0.1% Tween-20, 1 mM DTT (from 1M stock frozen at −20° C. just prior to use). For convenience a large quantity of “Simple TOR buffer” w/o DTT can be stored at 4° C. It can be brought to room temperature and DTT added just prior to dilution of TOR fraction.
5XKB/5XMn/5×ATP solution (used to dilute substrate GST-p70S6kin 81 a.a. just prior to use) (40 ml screen quantity shown):
Enzyme solution: Dilute TOR fraction 1:14 in “Simple TOR Buffer”. For current lot that is 640 μg/ml TOR fraction diluted 14× to yield 45.7 μg/ml TOR in buffer (i.e. 7.85 ml TOR pooled fraction+102.1 ml Simple TOR buffer=110 ml 14× diluted TOR fraction). Each Enzyme Lot must be QC'd prior to assay.
Substrate solution: This may be prepared just prior to assay if preferred. Dilute 5.3 mg/ml GST-p70S6kinase fragment stock to 3.5 μg/ml (97 nM) working stock in 5XKB/5XMn/5×ATP solution (i.e. 26.41 μL (5.3 mg/ml) GST-p70S6+40 ml 5XKB/5XMn/5×ATP=40 ml 3.5 μg/ml (97 nM)).
Assay Buffer (for dilution of Antibodies used in Antibody Detection Reagent):
Antibody Detection Reagent (this reagent should be made just prior to addition to Assay Plates):
Using PlateTrak program (Screen) or Matrix Pipettor (SAR), 19.5 μL of diluted TOR fraction is added to assay plate in all test, reference or positive control wells. 19.5 μL of “Simple TOR buffer” is added to all negative control wells. If treating multiple plates with the same compounds, can increase volume of enzyme to multiples of 19.5 μL in a tall 384 well polypropylene plate.
Using EP3, 0.5 μl of test, reference or control DMSO is added to each well with mixing. Plates are incubated for 30 minutes at room temperature.
Using PlateTrak program (Screen) or Matrix Pipettor (SAR) 5 μL of 5XKB/5XMn/5×ATP/5× substrate solution is added to each well of the assay plate to start the reaction. The solutions are mixed well and incubated for 2 hours at room temperature.
Using PlateTrak program (Screen) or Matrix Pipettor (SAR) 5 μL of 60 mM EDTA is added to stop the reaction. The solutions are mixed well and allowed to sit for 15-20 minutes before the next step.
Using PlateTrak program (Screen) or Matrix Pipettor (SAR) 10 μl of Antibody Detection Reagent is added. The solutions are mixes well and incubated for 5 hours to O/N to allow antibodies to form complexes with phosphorylated substrate.
Plates are read on AnalystHT using protocol Multi-Method protocol.

Another data set addresses T1, IKK-2 (Homo sapiens, UniProt O14920, S177E/S181E).
T1 sequence (O14920 1-756 S177E/S181E): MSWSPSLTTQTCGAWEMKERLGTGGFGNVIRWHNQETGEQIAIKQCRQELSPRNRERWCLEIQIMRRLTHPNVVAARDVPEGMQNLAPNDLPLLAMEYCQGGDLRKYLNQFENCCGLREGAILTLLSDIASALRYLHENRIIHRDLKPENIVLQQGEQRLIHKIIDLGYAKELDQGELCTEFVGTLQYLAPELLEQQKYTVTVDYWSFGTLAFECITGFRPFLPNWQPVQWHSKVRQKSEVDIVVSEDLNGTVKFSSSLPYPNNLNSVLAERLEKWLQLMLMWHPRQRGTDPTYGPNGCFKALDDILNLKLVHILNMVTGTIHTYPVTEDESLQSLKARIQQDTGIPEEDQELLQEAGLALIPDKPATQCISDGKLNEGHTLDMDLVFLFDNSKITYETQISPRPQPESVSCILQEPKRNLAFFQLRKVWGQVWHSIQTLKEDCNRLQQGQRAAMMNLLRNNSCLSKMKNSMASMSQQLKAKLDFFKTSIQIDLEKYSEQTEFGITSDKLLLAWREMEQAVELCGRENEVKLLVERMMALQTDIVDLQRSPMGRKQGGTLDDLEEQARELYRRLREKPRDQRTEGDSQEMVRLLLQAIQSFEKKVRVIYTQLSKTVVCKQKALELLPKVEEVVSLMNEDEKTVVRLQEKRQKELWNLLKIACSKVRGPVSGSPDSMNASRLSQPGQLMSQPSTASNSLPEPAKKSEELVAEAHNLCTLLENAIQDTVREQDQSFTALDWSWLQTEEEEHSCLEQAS
Kind of data set: IKK-2 screening assay (IKK2EE 33P Assay / IKK2EE NEMO HTRF Assay). In kind it is biochemical. Here is the method:
The following is an example of an assay that can be used to determine the IKK2EE inhibitory activity of a test compound.
A reaction buffer (pH 7.8) is prepared containing HEPES (20 mM), MgCl2 (10 mM), EDTA (0.1 mM), DTT (1 mM) and Triton X-100 (0.004%). IKK2EE (0.75 μg/ml is used. GST-IKBα (50 μg/ml) is used as substrate. Adenosine 5′-triphosphate (1.5 μM with ^33P-ATP 5 nCi/μl) is used. Reactions are stopped with trichloroacetic acid (6.25%).
Appropriate amounts of test compounds or controls in 100% DMSO are added to the assay plate. A peptide-substrate solution (PSS) is prepared by adding peptide stock to an appropriate volume of buffer (peptide concentration in the PSS will be about 100 μg/ml). An enzyme-peptide solution (EPS) is prepared by adding enzyme stock to an appropriate volume of PSS (the enzyme concentration in the EPS will be about 1 μg/ml). An ATP solution is prepared by adding ATP stock to an appropriate volume of buffer (the ATP concentration will be 15 μM).
85 μl of EPS is added to the assay wells (or PSS to positive control wells) of 96 well polypropylene plates. The ATP solution is then completed by adding ^33P-ATP (to a final concentration of 50 μCi/ml).
The reaction is initiated by adding 10 μl ATP solution to each well. Plates are shaken from about 12 seconds and allowed to incubate at room temperature for 1 hours. 100 μl of trichloroacetic acid solution (12.5%) is added to stop the reaction and the plates are incubated at room temperature for at least 10 minutes. The assay plates are harvested onto a Millipore Multiscreen harvest Plate FC using an appropriate harvester and the harvest plates are washed with 1×PBS solution for about 10 seconds (continuous flow). Harvest plates are allowed to dry thoroughly and the bottoms of the plates are sealed. 20-50 μl of Microscint20 is added to each well, tops are sealed and plates are read using an appropriate scintillation counter.
A reaction buffer (pH 7.6) is prepared containing HEPES (20 mM), MgCl2 (10 mM), EDTA (0.05 mM), DTT (1 mM) and Triton X-100 (0.004%). IKK2EE-NEMO (0.7 μg/ml is used. GST-IKBα (0.5 μg/ml) is used as substrate. Adenosine 5′-triphosphate (1.5 μM) is used. Detection reagents used are mouse anti-P-IKBα (30 ng/ml), Eu anti-mouse (300 ng/ml) and Cy5 anti-GST (11.5 μg/ml). Reactions are stopped with EDTA (20 mM).
An enzyme solution (ES) is prepared by adding enzyme stock to an appropriate volume of buffer (enzyme concentration in the ES will be about 1.7 ng/ml). A detection mixture (DM) is prepared by adding ATP (final conc. 3.75 μM), mouse anti-P-IKBα (final conc. 75 ng/ml), GST-IKBα (final conc. 1.26 μg/ml), Eu anti-mouse in buffer (final conc. 750 ng/ml).
5 μl of compound (solvated in 10% DMSO) is added to assay wells (or 10% DMSO to control wells) of low binding reaction plates. […] ES is added to assay wells (or buffer to control wells) and the reaction is initiated by adding 10 μl DM to all wells. Plates are incubated at room temperature for 45 minutes. Stop mixture is prepared by adding EDTA (final conc. 70 mM) and Cy5 anti-GST (final conc. 40 μg/ml) to an appropriate volume of buffer. Stop mixture is added and plates are shaken for 20 seconds and incubated at room temperature for at least 3 hours (preferably in the dark). Plates are read on an Analyst HT using Multi-Method HTRF.
For orientation: Time-resolved FRET reads energy transfer from a long-lived donor to a nearby acceptor.

Each structure is given as a SMILES string.

As for `NC(=O)c1nc(-c2cccnc2)nc2c1ncn2-c1ccccc1` [Compound 35, 9-phenyl-2-(pyridin-3-yl)-9H-purine-6-carboxamide], the melting point lay within 298 to 299 °C. The compound further returned an IC50 against mTOR of 20.1 to 30 µM. Moreover, the IC50 against IKK-2 lay within 5.1 to 10 µM.

Consider `COc1ccccc1-n1c(=O)[nH]c2c(C(N)=O)nc(-c3cccc4[nH]ccc34)nc21` [Compound 10, 2-(1H-indol-4-yl)-9-(2-methoxyphenyl)-8-oxo-8,9-dihydro-7H-purine-6-carboxamide], for which the melting point is 312 to 313 °C. This compound returned a half-inhibitory concentration (IC50) on mTOR of 5.1 to 10 µM. At IKK-2, this compound registered an IC50 greater than 30 µM.

`COc1ccccc1-n1c(=O)[nH]c2c(C(N)=O)nc(-c3ccc4cc[nH]c4c3)nc21` [Compound 11, 2-(1H-indol-6-yl)-9-(2-methoxyphenyl)-8-oxo-8,9-dihydro-7H-purine-6-carboxamide] returned a melting point of 203 to 204 °C. The same compound came in with an IC50 against mTOR of 10.1 to 20 µM. The same compound displayed an IC50 against IKK-2 greater than 30 µM.

Turning to `N#Cc1cccc(-c2nc(C(N)=O)c3[nH]c(=O)n(-c4ccccc4)c3n2)c1` [Compound 27, 2-(3-cyanophenyl)-8-oxo-9-phenyl-8,9-dihydro-7H-purine-6-carboxamide], the melting point was 328 to 330 °C. At mTOR, the IC50 was 10.1 to 20 µM. Further, at IKK-2, the IC50 is greater than 30 µM.

The compound `NC(=O)c1nc(-c2cccnc2Cl)nc2c1[nH]c(=O)n2-c1ccccc1` [Compound 4, 2-(2-chloropyridin-3-yl)-8-oxo-9-phenyl-8,9-dihydro-7H-purine-6-carboxamide] yielded a melting point of 283 to 286 °C. On mTOR, the IC50 was greater than 30 µM. Further, the IC50 on IKK-2 is greater than 30 µM.

Regarding `CN(C)C(=O)c1nc(-c2cccnc2)nc2c1[nH]c(=O)n2-c1ccccc1` [Compound 6, N,N-dimethyl-8-oxo-9-phenyl-2-(pyridin-3-yl)-8,9-dihydro-7H-purine-6-carboxamide], the melting point is 250 to 252 °C. Also, at mTOR, the half-inhibitory concentration (IC50) was greater than 30 µM. Further, the IC50 against IKK-2 is greater than 30 µM.
